{"source": "patent US20220356163A1", "about": "“SMALL MOLECULE INHIBITORS OF Id PROTEINS” (MEMORIAL SLOAN KETTERING CANCER CENTER, priority 2019, published 2022)", "key": {"ID1": {"target": "T1, ID1 (Homo sapiens, UniProt P41134)", "T1 sequence (P41134 1-155)": "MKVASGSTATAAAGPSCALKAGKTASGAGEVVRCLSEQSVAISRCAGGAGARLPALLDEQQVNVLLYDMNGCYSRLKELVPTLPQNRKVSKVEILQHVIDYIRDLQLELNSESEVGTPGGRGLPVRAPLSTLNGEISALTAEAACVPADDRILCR", "test": "Ubiquitylation assay in HCT116 and U87 cells", "type": "cell-based", "settings": "60 μM AGX51 two hours, then MG132 six hours", "protocol": "Ubiquitylation assay. HCT116 cells were transfected with pcDNA3-ID1-Flag and pcDNA3-HA-Ubiquitin using lipofectamine 3000 (ThermoFisher). 36 hours after transfection, cells were treated with 60 μM AGX51 for two hours followed by 20 μM MG132 (EMD Millipore) for an additional six hours. After washing with ice-cold PBS twice, cells were lysed in 100 μL of TBS (50 mM Tris-HCl, pH 8.0, 150 mM NaCl) containing 2% SDS and boiled at 100° C. for 10 minutes. Lysates were diluted with 900 μL of TBS containing 1% NP40 and EDTA free protease inhibitor cocktail (Roche) and were cleared by centrifuge at 15,000 rpm for 15 minutes at 4° C. Immunoprecipitation was performed using 1 mg of cellular lysates with FLAG M2 affinity gel (Sigma, F2426). Ubiquitinylated proteins were analyzed by immunoblot using indicated antibodies.\nId proteins are degraded by the ubiquitin 26S proteasome system. Lasorella et al., Nat Rev Cancer, 14: 77-91 (2014). To determine if this degradation pathway mediated the effects of AGX51 on Id protein levels was then explored. HUVECs are difficult to transfect with expression constructs, so HCT116 cells were utilized for this assay. HCT116 cells were transfected with a construct expressing Flag-ID1 and then treated with 60 μM AGX51 for 2-24 hours (FIG. 3B). […]"}, "MDA-MB-453": {"test_system": "MDA-MB-453", "test": "MTT assay, MDA-MB-453", "type": "cell-based", "design": "scale not given here", "settings": "MDA-MB-453, HER-2 +ve cell line, 24 hours", "from_the_text": "(§1) The 4T1 murine mammary tumor cell line and nine breast cancer cell lines representing the major breast cancer subtypes (ER+, HER2+, and TNBC) including MDA-MB-157, MDA-MB-436, MDA-MB-231, MDA-MB-453, MDA-MB-361, BT-474, SK-BR-3, MCF-7 and T47-D will be grown in RPMI or DMEM (Dulbecco's Modified Eagle Medium) media supplemented with 10% FBS (fetal bovine serum), 1% penicillin-streptomycin and 1% L-Glutamine. Patient derived xenograft cell lines BR7, BR11, and IBT will be established directly from breast cancer bone metastases specimens surgically resected from patients with informed consent. BR7 and BR11 specimens will be obtained from ER positive (HER2 negative and PR negative) metastatic breast cancer patients, while the IBT specimen will be obtained from a metastatic, triple negative breast cancer patient. Fresh tumor tissues will be quickly washed with ice cold PBS and minced into about 1-3 mm pieces in MEM medium (without FBS) using sterile razor blades. […] The cells will be treated with either 100 μM DMSO, AGX51, or a compound of the present technology such as AGX-A. The cell morphology and growth will be monitored daily for 1 week by microscopy for changes in morphology or cell death. […] Absorbance will then measured at 570 nm using a plate reader (Synergy 2, BioTek). […]"}, "T47-D": {"test_system": "T47-D", "test": "MTT assay, T47-D", "type": "cell-based", "settings": "ER +ve cell line, 24 hours", "from_the_text": "as §1"}, "PDX-IBT": {"test_system": "PDX-IBT", "test": "MTT assay, PDX-IBT", "type": "cell-based", "settings": "24 h, PDX cell line, read-out: IC50 value after 24 hours of treatment", "from_the_text": "as §1"}, "Aqueous solubility": {"test": "Aqueous solubility", "type": "physicochemical"}}, "data": [{"molecule": "CCC(=O)N(CCC(c1ccc2c(c1)OCO2)c1ccccc1OC)Cc1ccccc1", "note": "(racemic) [AGX51, N-(3-(benzo[d][1,3]dioxol-5-yl)-3-(2-methoxyphenyl)propyl)-N-benzylpropionamide]", "values": [{"measurement": "ID1 polyubiquitylation", "setting": "ID1", "value": "further increased ID1 polyubiquitylation"}, {"measurement": "percentage at 60 μM (IC50 NA)", "setting": "MDA-MB-453", "value": "NA (60 μM = 57%)"}, {"measurement": "percentage at 60 μM (IC50 NA)", "setting": "T47-D", "value": "NA (60 μM = 65%)"}, {"measurement": "IC50", "setting": "PDX-IBT", "value": 12, "unit": "µM"}, {"measurement": "water solubility", "setting": "Aqueous solubility", "value": "water insoluble"}]}]}
